Test results reported in ChEMBL document CHEMBL3885881, “DrugMatrix”.

Species on record: Rattus norvegicus
Experiment: DrugMatrix - Regimen: Daily Repeat
Type: toxicity, organism-based, Sprague-Dawley
Design: regimen Daily Repeat, gender Male, age 6-8 weeks
Conditions: in vivo, po, […], route oral GAVAGE, vehicle 100 % WATER; for ALANINE AMINOTRANSFERASE / ALBUMIN / ALKALINE PHOSPHATASE / ASPARTATE AMINOTRANSFERASE / BLOOD UREA NITROGEN / CARBON DIOXIDE / CHLORIDE / CHOLESTEROL / CREATINE PHOSPHOKINASE / CREATININE / GLUCOSE / LACTATE DEHYDROGENASE / LIPASE / PHOSPHORUS / POTASSIUM / SODIUM / TOTAL BILIRUBIN / TOTAL PROTEIN / URIC ACID: tissue Plasma; for ABSOLUTE BASOPHIL / ABSOLUTE EOSINOPHIL / ABSOLUTE LYMPHOCYTE / ABSOLUTE MONOCYTE / ABSOLUTE SEGMENTED NEUTROPHIL / BASOPHIL / EOSINOPHIL / ERYTHROCYTE COUNT / HEMATOCRIT / HEMOGLOBIN / LEUKOCYTE COUNT / LYMPHOCYTE / MEAN CORPUSCULAR HEMOGLOBIN / MEAN CORPUSCULAR HEMOGLOBIN CONCENTRATION / MEAN CORPUSCULAR VOLUME / MONOCYTE / NEUTROPHIL / NUCLEATED RED BLOOD CELLS / PLATELET COUNT: tissue Blood
[1] = 72 h, dose 0.025 mg/Kg, dose level Low, time 3 day
[2] = 72 h, dose 0.25 mg/Kg, dose level High, time 3 day
[3] = 120 h, dose 0.025 mg/Kg, dose level Low, time 5 day
[4] = 120 h, dose 0.25 mg/Kg, dose level High, time 5 day

Question: `C[C@@H]1C[C@@H]([C@H](O)CC2CC(=O)NC(=O)C2)C(=O)[C@@H](C)C1` [CYCLOHEXIMIDE] was tested. Which “ALANINE AMINOTRANSFERASE” value [1] did it give?
Answer: 59.67 u/L

Question: What about the ALBUMIN [1] of the same molecule?
Answer: 4.1 G/DL

Question: And the “ALKALINE PHOSPHATASE” value [1]?
Answer: 369.67 u/L

Question: What about the “ASPARTATE AMINOTRANSFERASE” value [1] of the same molecule?
Answer: 107.33 u/L

Question: What about the “BLOOD UREA NITROGEN” value [1] of the same molecule?
Answer: 15.67 mg/dL

Question: And the “CARBON DIOXIDE” value [1]?
Answer: 31 mmol/L

Question: And the CHLORIDE [1]?
Answer: 102 MEQ/L

Question: What about the CHOLESTEROL [1] of the same molecule?
Answer: 69 mg/dL

Question: What about the “CREATINE PHOSPHOKINASE” value [1] of the same molecule?
Answer: 1055 u/L

Question: And the CREATININE [1]?
Answer: 0.22 mg/dL

Question: What about the GLUCOSE [1] of the same molecule?
Answer: 164 mg/dL

Question: What about the “LACTATE DEHYDROGENASE” value [1] of the same molecule?
Answer: 240.33 u/L

Question: What about the LIPASE [1] of the same molecule?
Answer: 9 u/L

Question: What about the PHOSPHORUS [1] of the same molecule?
Answer: 12.27 mg/dL

Question: And the POTASSIUM [1]?
Answer: 6.52 MEQ/L

Question: And the SODIUM [1]?
Answer: 142.17 MEQ/L

Question: What about the “TOTAL BILIRUBIN” value [1] of the same molecule?
Answer: 0.23 mg/dL

Question: And the “TOTAL PROTEIN” value [1]?
Answer: 5.63 G/DL

Question: And the “URIC ACID” value [1]?
Answer: 1.8 mg/dL

Question: What about the “ALANINE AMINOTRANSFERASE” value [2] of the same molecule?
Answer: 45 u/L

Question: And the ALBUMIN [2]?
Answer: 3.43 G/DL

Question: What about the “ALKALINE PHOSPHATASE” value [2] of the same molecule?
Answer: 376.67 u/L

Question: What about the “ASPARTATE AMINOTRANSFERASE” value [2] of the same molecule?
Answer: 77 u/L

Question: And the “BLOOD UREA NITROGEN” value [2]?
Answer: 14.33 mg/dL

Question: And the “CARBON DIOXIDE” value [2]?
Answer: 34.33 mmol/L

Question: What about the CHLORIDE [2] of the same molecule?
Answer: 101.33 MEQ/L

Question: What about the CHOLESTEROL [2] of the same molecule?
Answer: 48.67 mg/dL

Question: And the “CREATINE PHOSPHOKINASE” value [2]?
Answer: 345.33 u/L

Question: And the CREATININE [2]?
Answer: 0.17 mg/dL

Question: What about the GLUCOSE [2] of the same molecule?
Answer: 154.33 mg/dL

Question: What about the “LACTATE DEHYDROGENASE” value [2] of the same molecule?
Answer: 99 u/L

Question: And the LIPASE [2]?
Answer: 8 u/L

Question: And the PHOSPHORUS [2]?
Answer: 12.1 mg/dL

Question: What about the POTASSIUM [2] of the same molecule?
Answer: 7.04 MEQ/L

Question: And the SODIUM [2]?
Answer: 141.27 MEQ/L

Question: And the “TOTAL BILIRUBIN” value [2]?
Answer: 0.23 mg/dL

Question: And the “TOTAL PROTEIN” value [2]?
Answer: 4.67 G/DL

Question: And the “URIC ACID” value [2]?
Answer: 1.33 mg/dL

Question: And the “ABSOLUTE BASOPHIL” value [3]?
Answer: 0 CELLS/uL

Question: And the “ABSOLUTE EOSINOPHIL” value [3]?
Answer: 0 CELLS/uL

Question: What about the “ABSOLUTE LYMPHOCYTE” value [3] of the same molecule?
Answer: 7936.67 CELLS/uL

Question: What about the “ABSOLUTE MONOCYTE” value [3] of the same molecule?
Answer: 68.67 CELLS/uL

Question: What about the “ABSOLUTE SEGMENTED NEUTROPHIL” value [3] of the same molecule?
Answer: 628 CELLS/uL

Question: What about the BASOPHIL [3] of the same molecule?
Answer: 0%

Question: And the EOSINOPHIL [3]?
Answer: 0%

Question: And the “ERYTHROCYTE COUNT” value [3]?
Answer: 5.73 x10E6/uL

Question: And the HEMATOCRIT [3]?
Answer: 34.33%

Question: And the HEMOGLOBIN [3]?
Answer: 13.1 G/DL

Question: And the “LEUKOCYTE COUNT” value [3]?
Answer: 8.63 x10E3/uL

Question: And the LYMPHOCYTE [3]?
Answer: 91.67%

Question: What about the “MEAN CORPUSCULAR HEMOGLOBIN” value [3] of the same molecule?
Answer: 22.9 pg

Question: And the “MEAN CORPUSCULAR HEMOGLOBIN CONCENTRATION” value [3]?
Answer: 38.13 G/DL

Question: What about the “MEAN CORPUSCULAR VOLUME” value [3] of the same molecule?
Answer: 60.1 fL

Question: And the MONOCYTE [3]?
Answer: 1%

Question: And the NEUTROPHIL [3]?
Answer: 7.33%

Question: What about the “NUCLEATED RED BLOOD CELLS” value [3] of the same molecule?
Answer: 0 /100WBC

Question: What about the “PLATELET COUNT” value [3] of the same molecule?
Answer: 1317.33 x10E3/uL

Question: And the “ABSOLUTE BASOPHIL” value [4]?
Answer: 0 CELLS/uL

Question: And the “ABSOLUTE EOSINOPHIL” value [4]?
Answer: 26.67 CELLS/uL

Question: And the “ABSOLUTE LYMPHOCYTE” value [4]?
Answer: 7410 CELLS/uL

Question: What about the “ABSOLUTE MONOCYTE” value [4] of the same molecule?
Answer: 139.67 CELLS/uL

Question: And the “ABSOLUTE SEGMENTED NEUTROPHIL” value [4]?
Answer: 1057 CELLS/uL

Question: What about the BASOPHIL [4] of the same molecule?
Answer: 0%

Question: And the EOSINOPHIL [4]?
Answer: 0.33%

Question: What about the “ERYTHROCYTE COUNT” value [4] of the same molecule?
Answer: 5.35 x10E6/uL

Question: And the HEMATOCRIT [4]?
Answer: 32.87%

Question: What about the HEMOGLOBIN [4] of the same molecule?
Answer: 12.77 G/DL

Question: And the “LEUKOCYTE COUNT” value [4]?
Answer: 8.63 x10E3/uL

Question: And the LYMPHOCYTE [4]?
Answer: 85%

Question: And the “MEAN CORPUSCULAR HEMOGLOBIN” value [4]?
Answer: 23.83 pg

Question: And the “MEAN CORPUSCULAR HEMOGLOBIN CONCENTRATION” value [4]?
Answer: 38.8 G/DL

Question: What about the “MEAN CORPUSCULAR VOLUME” value [4] of the same molecule?
Answer: 61.47 fL

Question: And the MONOCYTE [4]?
Answer: 1.67%

Question: What about the NEUTROPHIL [4] of the same molecule?
Answer: 13%

Question: What about the “NUCLEATED RED BLOOD CELLS” value [4] of the same molecule?
Answer: 0 /100WBC

Question: What about the “PLATELET COUNT” value [4] of the same molecule?
Answer: 1213 x10E3/uL

Question: What about the “ALANINE AMINOTRANSFERASE” value [3] of the same molecule?
Answer: 45.33 u/L

Question: And the ALBUMIN [3]?
Answer: 4.03 G/DL

Question: And the “ALKALINE PHOSPHATASE” value [3]?
Answer: 343 u/L

Question: And the “ASPARTATE AMINOTRANSFERASE” value [3]?
Answer: 78 u/L

Question: And the “BLOOD UREA NITROGEN” value [3]?
Answer: 15.33 mg/dL

Question: And the “CARBON DIOXIDE” value [3]?
Answer: 33.33 mmol/L

Question: What about the CHLORIDE [3] of the same molecule?
Answer: 102.33 MEQ/L

Question: And the CHOLESTEROL [3]?
Answer: 68.67 mg/dL

Question: What about the “CREATINE PHOSPHOKINASE” value [3] of the same molecule?
Answer: 249.67 u/L

Question: And the CREATININE [3]?
Answer: 0.16 mg/dL

Question: And the GLUCOSE [3]?
Answer: 141 mg/dL

Question: What about the “LACTATE DEHYDROGENASE” value [3] of the same molecule?
Answer: 124.33 u/L

Question: What about the LIPASE [3] of the same molecule?
Answer: 9 u/L

Question: What about the PHOSPHORUS [3] of the same molecule?
Answer: 11.4 mg/dL

Question: And the POTASSIUM [3]?
Answer: 5.87 MEQ/L

Question: And the SODIUM [3]?
Answer: 146.43 MEQ/L

Question: What about the “TOTAL BILIRUBIN” value [3] of the same molecule?
Answer: 0.1 mg/dL

Question: And the “TOTAL PROTEIN” value [3]?
Answer: 5.83 G/DL

Question: And the “URIC ACID” value [3]?
Answer: 0.73 mg/dL

Question: And the “ALANINE AMINOTRANSFERASE” value [4]?
Answer: 54.67 u/L

Question: What about the ALBUMIN [4] of the same molecule?
Answer: 3.6 G/DL

Question: What about the “ALKALINE PHOSPHATASE” value [4] of the same molecule?
Answer: 291.33 u/L

Question: What about the “ASPARTATE AMINOTRANSFERASE” value [4] of the same molecule?
Answer: 78 u/L

Question: And the “BLOOD UREA NITROGEN” value [4]?
Answer: 16 mg/dL

Question: And the “CARBON DIOXIDE” value [4]?
Answer: 35.33 mmol/L

Question: And the CHLORIDE [4]?
Answer: 101.5 MEQ/L

Question: And the CHOLESTEROL [4]?
Answer: 65 mg/dL

Question: What about the “CREATINE PHOSPHOKINASE” value [4] of the same molecule?
Answer: 253.67 u/L

Question: And the CREATININE [4]?
Answer: 0.15 mg/dL

Question: What about the GLUCOSE [4] of the same molecule?
Answer: 135 mg/dL

Question: What about the “LACTATE DEHYDROGENASE” value [4] of the same molecule?
Answer: 109 u/L

Question: What about the LIPASE [4] of the same molecule?
Answer: 9 u/L

Question: What about the PHOSPHORUS [4] of the same molecule?
Answer: 11.9 mg/dL

Question: And the POTASSIUM [4]?
Answer: 6.52 MEQ/L

Question: What about the SODIUM [4] of the same molecule?
Answer: 143.55 MEQ/L

Question: What about the “TOTAL BILIRUBIN” value [4] of the same molecule?
Answer: 0.1 mg/dL

Question: And the “TOTAL PROTEIN” value [4]?
Answer: 5.03 G/DL

Question: What about the “URIC ACID” value [4] of the same molecule?
Answer: 0.73 mg/dL
